How the values were obtained:
Type in all cases: biochemical
[1] = Protease-catalyzed perhydrolysis of acetamide at pH 4.0 (Example 6); settings: pH 4.0, 500 mM H2O2, 1 mg protease
Procedure: (§1) Into a 4-mL glass vial with stir bar was added 1 mg protease (Table 6) in 0.050 mL of 50 mM sodium acetate/acetic acid buffer (pH 4.0), 0.900 mL of an aqueous mixture containing either a) acetamide (278 mM) in 50 mM sodium acetate/acetic acid buffer (pH 4.0) or b) diacetamide (278 mM) in 50 mM sodium acetate/acetic acid buffer (pH 4.0), and 0.052 mL 30% hydrogen peroxide (500 mM final concentration). […] A portion of the filtered reaction samples was diluted 1:10 with dd water and analyzed for hydrogen peroxide, and the remaining portion of the sample was directly analyzed for peracid using the HPLC assay method (Table 7).

[2] = Protease-catalyzed perhydrolysis of diacetamide at pH 4.0 (Example 6); settings: pH 4.0, 500 mM H2O2, 1 mg protease
Procedure: as §1

[3] = Protease-catalyzed perhydrolysis of triacetin at pH 4.0 (Example 7); settings: pH 4.0, 500 mM H2O2, 1 mg protease
Procedure: Into a 4-mL glass vial with stir bar was added 1 mg protease (Table 6) in 0.050 mL of 50 mM sodium acetate/acetic acid buffer (pH 4.0), 0.900 mL of an aqueous mixture containing triacetin (278 mM) in 50 mM sodium acetate/acetic acid buffer (pH 4.0), and 0.052 mL 30% hydrogen peroxide (500 mM final concentration). […] A portion of the filtered reaction samples was diluted 1:10 with dd water and analyzed for hydrogen peroxide, and the remaining portion of the sample was directly analyzed for peracid using the HPLC assay method (Table 8).

[4] = Protease-catalyzed perhydrolysis of triacetin at pH 6.5 (Example 8); settings: pH 6.5, 500 mM H2O2, 1 mg protease
Procedure: The analytical procedure described by U. Karst et al. (Anal. Chem., 69 (17):3623-3627 (1997)) was employed, as described herein, for analysis of product mixtures containing peracid and hydrogen peroxide. Briefly, the concentration of peracetic acid (PAA) in analyzed samples ranged from 0.025 mM-10 mM, and the concentration of H2O2 ranged from 0.075 mM-3 mM. Reaction mixtures containing peracid and/or hydrogen peroxide were, if necessary prior to analysis, diluted to produce a concentration of peracid or peroxide in these ranges. Into a 4-mL vial was placed 0.100 mL of 20 mM methyl p-tolyl sulfide (MTS) in acetonitrile, 0.300 mL of distilled and deionized water (dd) and 0.100 mL of sample solution (undiluted or diluted with dd water by a factor of up to 1:25 for analysis of peracid), or 0.100 mL of 20 mM MTS in acetonitrile and 0.390 mL of dd water were added to 0.010 mL of a 1:10 dilution of sample solution (for analysis of hydrogen peroxide). After a reaction time of 10 minutes (in the dark, with no stirring), 0.400 mL CH3CN and 0.100 mL of 40-mM triphenylphosphine (TPP) in CH3CN were added to start the second derivatization reaction for detection of peroxide. The solution was left standing in the dark for 30 min to complete the assay reaction. At the end of 30 minutes, 0.100 mL of 10 mM N,N-diethyl-m-toluamide (DEET, HPLC external standard) was added and the resulting solution analyzed by HPLC: Supelco Discovery C8 10-cm column with pre-column, 10-μL injection, UV detection at 225 nm, solvent A: acetonitrile, solvent B: deionized water, 1 mL/min gradient as follows: […]
Into a 4-mL glass vial with stir bar was added 1 mg protease (Table 6) in 0.050 mL of 50 mM sodium phosphate buffer (pH 6.5), 0.900 mL of an aqueous mixture containing triacetin (278 mM) in 50 mM phosphate buffer (pH 6.5), and 0.052 mL 30% hydrogen peroxide (500 mM final concentration). After stirring for 5 or 30 minutes at 22° C., a 0.250 mL sample was filtered using a 30,000 NMWL filter (Millipore UltraFree-MC) centrifuged for 2 minute at 12,000 RPM. A portion of the filtered reaction samples was diluted 1:10 with dd water and analyzed for hydrogen peroxide, and the remaining portion of the sample was directly analyzed for peracid using the HPLC assay method (Table 9).

[5] = Protease-catalyzed perhydrolysis of acetamide at pH 6.5 (Example 9); settings: pH 6.5, 500 mM H2O2, 1 mg protease
Procedure: as §1, with “potassium phosphate” for “sodium acetate/acetic acid”, “6.5),” for “4.0),”, “6.5)” for “4.0)”, “10).” for “7).”

[6] = Protease-catalyzed perhydrolysis of diacetamide at pH 6.5 (Example 9); settings: pH 6.5, 500 mM H2O2, 1 mg protease
Procedure: as §1, with “potassium phosphate” for “sodium acetate/acetic acid”, “6.5),” for “4.0),”, “6.5)” for “4.0)”, “10).” for “7).”

[7] = Enzymatic perhydrolysis of triacetin using a combination of lipase and Neutrase at pH 4.0 and 6.5 (Example 24); settings: triacetin 250 mM, H2O2 500 mM, 22° C.
Procedure: Reaction mixtures were prepared containing 1 mg lipase (A “Amano” 12 (Amano), Validase AN (Valley Research), or ICR-110 (BioCatalytics)), and 20 μL Neutrase® (Novozymes) in 1.0 mL of 50 mM buffer (either sodium acetate/acetic acid buffer at pH 4.0, or potassium phosphate buffer at pH 6.5), additionally containing triacetin (250 mM) and hydrogen peroxide (500 mM). […] A portion of the filtered reaction samples was diluted 1:10 with dd water and analyzed for hydrogen peroxide, and the remaining portion of the sample was directly analyzed for peracid using the HPLC assay method (Table 29). Reactions were also run with lipase alone or Neutrase® alone for comparison of peracetic acid concentrations produced without the combination of lipase and Neutrase®.

[8] = Enzymatic perhydrolysis of a mixture of diacetin (250 mM), triacetin (88 mM) and monoacetin (192 mM) using lipase and Neutrase at pH 4.0 and 6.5 (Example 25); settings: monoacetin 192 mM, H2O2 500 mM, 22° C.
Procedure: Reaction mixtures were prepared containing 1 mg lipase (A “Amano” 12 (Amano), Validase AN (Valley Research), or ICR-110 (BioCatalytics)), and 20 μL Neutrase® (Novozymes) in 1.0 mL of 50 mM buffer (either sodium acetate/acetic acid buffer at pH 4.0, or potassium phosphate buffer at pH 6.5), additionally containing a mixture of diacetin (250 mM), triacetin (88 mM) and monoacetin (192 mM) and hydrogen peroxide (500 mM). After stirring for 5 or 30 minutes at 22° C., a 0.250-mL sample was filtered using a 30,000 NMWL filter (Millipore UltraFree-MC) centrifuged for 2 minutes at 12,000 RPM. A portion of the filtered reaction samples was diluted 1:10 with dd water and analyzed for hydrogen peroxide, and the remaining portion of the sample was directly analyzed for peracid using the HPLC assay method (Table 30). Reactions were also run with lipase alone or Neutrase® alone for comparison of peracetic acid concentrations produced without the combination of lipase and Neutrase®.

Substance	acetamide (250 mM) peracetic acid (ppm), 5 min [1]	acetamide (250 mM) peracetic acid (ppm), 30 min [1]	diacetamide (250 mM) peracetic acid (ppm), 5 min [2]	diacetamide (250 mM) peracetic acid (ppm), 30 min [2]	triacetin (250 mM) peracetic acid (ppm), 5 min [3]	triacetin (250 mM) peracetic acid (ppm), 30 min [3]	triacetin (250 mM) peracetic acid (ppm), 5 min [4]	triacetin (250 mM) peracetic acid (ppm), 30 min [4]	acetamide (250 mM) peracetic acid (ppm), 5 min [5]	acetamide (250 mM) peracetic acid (ppm), 30 min [5]	diacetamide (250 mM) peracetic acid (ppm), 5 min [6]	diacetamide (250 mM) peracetic acid (ppm), 30 min [6]	peracetic acid (ppm), 5 min ([7]; pH 4.0)	peracetic acid (ppm), 30 min ([7]; pH 4.0)	peracetic acid (ppm), 5 min ([7]; pH 6.5)	peracetic acid (ppm), 30 min ([7]; pH 6.5)	peracetic acid (ppm), 5 min ([8]; pH 4.0, 5 min)	peracetic acid (ppm), 30 min ([8]; pH 4.0, 30 min)	peracetic acid (ppm), 5 min ([8]; pH 6.5, 5 min)	peracetic acid (ppm), 30 min ([8]; pH 6.5, 30 min)
Bromelain	57 ppm	63 ppm	92 ppm	130 ppm	83 ppm	59 ppm	161 ppm	170 ppm	108 ppm	112 ppm	311 ppm	202 ppm	–	–	–	–	–	–	–	–
Chymopapain: Chymopapain, papaya latex, Sigma C8526	66 ppm	65 ppm	100 ppm	131 ppm	72 ppm	57 ppm	69 ppm	167 ppm	94 ppm	12 ppm	218 ppm	170 ppm	–	–	–	–	–	–	–	–
Pepsin	45 ppm	65 ppm	97 ppm	120 ppm	65 ppm	44 ppm	111 ppm	163 ppm	81 ppm	67 ppm	259 ppm	198 ppm	–	–	–	–	–	–	–	–
Neutrase ®: Novozymes; a neutral protease from Bacillus amyloliquefaciens	–	–	–	–	–	–	–	–	–	–	–	–	0 ppm	0 ppm	110 ppm	300 ppm	50 ppm	110 ppm	50 ppm	110 ppm
